# Assay results as given in ChEMBL document CHEMBL1201862, “PubChem BioAssay data set” (2004).
#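 Protocol summary: plate cells (96-well), add compound at 5 concentrations, incubate 48 h, interpolate endpoints linearly. GI50 = concentration required for 50% inhibition of growth.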 Calls of active or inactive are those of the source. Rule as the data show it: active = GI50 up to about 1.1 µM and inactive = higher.
# Tests used:
# Assay in all cases: NCI-60 cell line screen, 48 h
# SK-MEL-5 = test system: SK-MEL-5
# HCT-15 = test system: HCT-15
# 786-0 = test system: 786-0
# CAKI-1 = test system: CAKI-1
# NCI-H460 = test system: NCI-H460
# MDA-N = test system: MDA-N
# RPMI-8226 = test system: RPMI-8226
# SF-295 = test system: SF-295
# K562 = test system: K562
# UACC-257 = test system: UACC-257
# ACHN = test system: ACHN
# MDA-MB-231 = test system: MDA-MB-231
# NCI/ADR-RES = test system: NCI/ADR-RES
# SF-268 = test system: SF-268
# SNB-75 = test system: SNB-75
# HL-60 = test system: HL-60
# SR = test system: SR
# TK-10 = test system: TK-10
# NCI-H226 = test system: NCI-H226
# OVCAR-4 = test system: OVCAR-4
# BT-549 = test system: BT-549
# KM12 = test system: KM12
# SNB-19 = test system: SNB-19
# U-251 = test system: U-251
# IGROV-1 = test system: IGROV-1
# HOP-92 = test system: HOP-92
# SK-MEL-2 = test system: SK-MEL-2
# A549 = test system: A549
# HT-29 = test system: HT-29
# SN12C = test system: SN12C
# NCI-H522 = test system: NCI-H522
# MCF7 = test system: MCF7
# HCC 2998 = test system: HCC 2998
# HCT-116 = test system: HCT-116
# OVCAR-5 = test system: OVCAR-5
# RXF 393 = test system: RXF 393
# DU-145 = test system: DU-145
# T47D = test system: T47D
# MDA-MB-435 = test system: MDA-MB-435
# OVCAR-3 = test system: OVCAR-3
# OVCAR-8 = test system: OVCAR-8
# SF-539 = test system: SF-539
# PC-3 = test system: PC-3
# A498 = test system: A498
# MOLT-4 = test system: MOLT-4
# SK-MEL-28 = test system: SK-MEL-28
# CCRF-CEM = test system: CCRF-CEM
# COLO 205 = test system: COLO 205
# SW-620 = test system: SW-620
# NCI-H23 = test system: NCI-H23
# UACC-62 = test system: UACC-62
# M14 = test system: M14
# Malme-3M = test system: Malme-3M
# UO-31 = test system: UO-31
# Hs-578T = test system: Hs-578T
# EKVX = test system: EKVX
# HOP-62 = test system: HOP-62
# LOX IMVI = test system: LOX IMVI
# SK-OV-3 = test system: SK-OV-3
compound,measurement,setting,value
NC(Cc1ccc(O)c(O)c1)P(=O)(O)O (stereo not given),GI50,SK-MEL-5,> 100 µM (inactive)
same,GI50,HCT-15,> 100 µM
same,GI50,786-0,> 100 µM (inactive)
same,GI50,CAKI-1,> 100 µM (inactive)
same,GI50,NCI-H460,> 100 µM (inactive)
same,GI50,MDA-N,> 100 µM (inactive)
same,GI50,RPMI-8226,92.7 µM (inactive)
same,GI50,SF-295,> 100 µM (inactive)
same,GI50,K562,19.6 µM (inactive)
same,GI50,UACC-257,> 100 µM (inactive)
same,GI50,ACHN,> 100 µM (inactive)
same,GI50,MDA-MB-231,> 100 µM (inactive)
same,GI50,NCI/ADR-RES,> 100 µM (inactive)
same,GI50,SF-268,> 100 µM (inactive)
same,GI50,SNB-75,> 100 µM (inactive)
same,GI50,HL-60,16.2 µM (inactive)
same,GI50,SR,91.8 µM (inactive)
same,GI50,TK-10,> 100 µM (inactive)
same,GI50,NCI-H226,> 100 µM (inactive)
same,GI50,OVCAR-4,> 100 µM (inactive)
same,GI50,BT-549,> 100 µM (inactive)
same,GI50,KM12,> 100 µM (inactive)
same,GI50,SNB-19,> 100 µM (inactive)
same,GI50,U-251,> 100 µM (inactive)
same,GI50,IGROV-1,> 100 µM (inactive)
same,GI50,HOP-92,> 100 µM (inactive)
same,GI50,SK-MEL-2,> 100 µM (inactive)
same,GI50,A549,> 100 µM (inactive)
same,GI50,HT-29,> 100 µM (inactive)
same,GI50,SN12C,> 100 µM (inactive)
same,GI50,NCI-H522,4.75 µM (inactive)
same,GI50,MCF7,> 10 µM (inactive)
same,GI50,HCC 2998,> 100 µM (inactive)
same,GI50,HCT-116,> 100 µM (inactive)
same,GI50,OVCAR-5,> 100 µM (inactive)
same,GI50,RXF 393,> 100 µM (inactive)
same,GI50,DU-145,> 100 µM (inactive)
same,GI50,T47D,18 µM (inactive)
same,GI50,MDA-MB-435,> 100 µM (inactive)
same,GI50,OVCAR-3,> 100 µM (inactive)
same,GI50,OVCAR-8,> 100 µM (inactive)
same,GI50,SF-539,> 100 µM (inactive)
same,GI50,PC-3,> 100 µM (inactive)
same,GI50,A498,> 100 µM (inactive)
same,GI50,MOLT-4,> 100 µM (inactive)
same,GI50,SK-MEL-28,> 100 µM (inactive)
same,GI50,CCRF-CEM,21.6 µM (inactive)
same,GI50,COLO 205,> 10 µM (inactive)
same,GI50,SW-620,20.1 µM (inactive)
same,GI50,NCI-H23,> 100 µM (inactive)
same,GI50,UACC-62,> 100 µM (inactive)
same,GI50,M14,> 100 µM (inactive)
same,GI50,Malme-3M,81.5 µM (inactive)
same,GI50,UO-31,> 100 µM (inactive)
O=c1c2ccccc2nnn1-c1n[nH]c2ccccc12,GI50,SK-MEL-5,37.8 µM (inactive)
same,GI50,HCT-15,> 100 µM
same,GI50,786-0,> 100 µM (inactive)
same,GI50,CAKI-1,> 100 µM (inactive)
same,GI50,NCI-H460,> 100 µM (inactive)
same,GI50,RPMI-8226,> 100 µM (inactive)
same,GI50,Hs-578T,> 100 µM (inactive)
same,GI50,SF-295,> 100 µM (inactive)
same,GI50,UACC-257,> 100 µM (inactive)
same,GI50,ACHN,> 100 µM (inactive)
same,GI50,MDA-MB-231,> 100 µM (inactive)
same,GI50,NCI/ADR-RES,> 100 µM (inactive)
same,GI50,SF-268,> 100 µM (inactive)
same,GI50,SNB-75,> 100 µM (inactive)
same,GI50,TK-10,> 100 µM (inactive)
same,GI50,OVCAR-4,> 100 µM (inactive)
same,GI50,BT-549,> 100 µM (inactive)
same,GI50,KM12,> 100 µM (inactive)
same,GI50,SNB-19,> 100 µM (inactive)
same,GI50,U-251,> 100 µM (inactive)
same,GI50,IGROV-1,> 100 µM (inactive)
same,GI50,HOP-92,> 100 µM (inactive)
same,GI50,SK-MEL-2,> 100 µM (inactive)
same,GI50,A549,> 100 µM (inactive)
same,GI50,HT-29,63.4 µM (inactive)
same,GI50,SN12C,> 100 µM (inactive)
same,GI50,NCI-H522,> 100 µM (inactive)
same,GI50,MCF7,> 100 µM (inactive)
same,GI50,HCC 2998,> 100 µM (inactive)
same,GI50,HCT-116,> 100 µM (inactive)
same,GI50,EKVX,> 100 µM (inactive)
same,GI50,OVCAR-5,13.9 µM (inactive)
same,GI50,RXF 393,> 100 µM (inactive)
same,GI50,DU-145,> 100 µM (inactive)
same,GI50,T47D,> 100 µM (inactive)
same,GI50,MDA-MB-435,> 100 µM (inactive)
same,GI50,OVCAR-3,> 100 µM (inactive)
same,GI50,SF-539,> 100 µM (inactive)
same,GI50,PC-3,> 100 µM (inactive)
same,GI50,A498,> 100 µM (inactive)
same,GI50,SK-MEL-28,> 100 µM (inactive)
same,GI50,CCRF-CEM,> 100 µM (inactive)
same,GI50,HOP-62,> 100 µM (inactive)
same,GI50,COLO 205,> 100 µM (inactive)
same,GI50,SW-620,> 100 µM (inactive)
same,GI50,NCI-H23,> 100 µM (inactive)
same,GI50,UACC-62,> 100 µM (inactive)
same,GI50,M14,> 100 µM (inactive)
same,GI50,Malme-3M,> 100 µM (inactive)
same,GI50,UO-31,> 100 µM (inactive)
Clc1ccc(C(Cc2ccccc2)c2c(Cl)nc(N3CCNCC3)nc2Cl)cc1 (stereo not given),GI50,SK-MEL-5,14.7 µM (inactive)
same,GI50,HCT-15,4.06 µM
same,GI50,786-0,16.5 µM (inactive)
same,GI50,CAKI-1,5.13 µM (inactive)
same,GI50,NCI-H460,12.1 µM (inactive)
same,GI50,RPMI-8226,13.7 µM (inactive)
same,GI50,Hs-578T,14.8 µM (inactive)
same,GI50,SF-295,19 µM (inactive)
same,GI50,K562,3.46 µM (inactive)
same,GI50,UACC-257,15.7 µM (inactive)
same,GI50,ACHN,13.6 µM (inactive)
same,GI50,MDA-MB-231,12.8 µM (inactive)
same,GI50,NCI/ADR-RES,15.8 µM (inactive)
same,GI50,LOX IMVI,3.46 µM (inactive)
same,GI50,SNB-75,14.1 µM (inactive)
same,GI50,HL-60,2.26 µM (inactive)
same,GI50,SR,1.63 µM (inactive)
same,GI50,TK-10,17.5 µM (inactive)
same,GI50,NCI-H226,22.8 µM (inactive)
same,GI50,OVCAR-4,18.6 µM (inactive)
same,GI50,BT-549,21.3 µM (inactive)
same,GI50,KM12,7.89 µM (inactive)
same,GI50,SNB-19,15.3 µM (inactive)
same,GI50,U-251,14 µM (inactive)
same,GI50,IGROV-1,11.9 µM (inactive)
same,GI50,HOP-92,8.57 µM (inactive)
same,GI50,SK-MEL-2,16.8 µM (inactive)
same,GI50,A549,16.1 µM (inactive)
same,GI50,HT-29,2.64 µM (inactive)
same,GI50,SN12C,15.2 µM (inactive)
same,GI50,NCI-H522,12.4 µM (inactive)
same,GI50,MCF7,5.38 µM (inactive)
same,GI50,HCC 2998,6.3 µM (inactive)
same,GI50,HCT-116,8.38 µM (inactive)
same,GI50,EKVX,17.9 µM (inactive)
same,GI50,OVCAR-5,17.7 µM (inactive)
same,GI50,DU-145,14.5 µM (inactive)
same,GI50,T47D,12.8 µM (inactive)
same,GI50,MDA-MB-435,16.6 µM (inactive)
same,GI50,OVCAR-3,14.3 µM (inactive)
same,GI50,OVCAR-8,12.1 µM (inactive)
same,GI50,SF-539,14.5 µM (inactive)
same,GI50,PC-3,14.3 µM (inactive)
same,GI50,A498,11.9 µM (inactive)
same,GI50,MOLT-4,4.01 µM (inactive)
same,GI50,SK-OV-3,17.7 µM (inactive)
same,GI50,SK-MEL-28,13.7 µM (inactive)
same,GI50,CCRF-CEM,7.11 µM (inactive)
same,GI50,HOP-62,15.7 µM (inactive)
same,GI50,COLO 205,1.73 µM (inactive)
same,GI50,SW-620,14.5 µM (inactive)
same,GI50,NCI-H23,18.2 µM (inactive)
same,GI50,UACC-62,21 µM (inactive)
same,GI50,M14,16.2 µM (inactive)
same,GI50,Malme-3M,14.3 µM (inactive)
same,GI50,UO-31,11.3 µM (inactive)
